Results published in article PMC4843002, “Identification of pyrazolopyridazinones as PDEδ inhibitors” (Nature Communications, 2016).

Legend:
Panc-Tu-I cells [1] = experiment: RTCA growth profile; format: cell-based, human
Protocol: RTCA was performed using 16-well E-plates on the Dual Plate xCELLigence instrument (Roche Applied Science, Indianapolis, IN). This system measures a dimensionless parameter called cell index, which evaluates the ionic environment at an electrode/solution interface and integrates information on cell number. Depending on the cell line 5 × 10^3–1 × 10^4 cells were plated in each well of the 16-well plates in 200 μl of cell culture medium. After seeding, cells were allowed to settle for 30 min at room temperature before being inserted into the xCELLigence instrument in a humidified incubator at 37 °C with 10% CO2. For RTCA experiments assaying cells stably expressing the inducible shRNA transgene, cells were seeded onto the E-plates in medium supplemented with 200 ng ml^−1 doxycycline. […] The small-molecule inhibitors were added at indicated time points and in the indicated concentrations. […] All assays were performed in duplicates. The cell index was normalized to 1 at the time point of drug administration.

BxPC-3 cells = format: cell-based
Protocol: (§1) RTCA was performed using 16-well E-plates on the Dual Plate xCELLigence instrument (Roche Applied Science, Indianapolis, IN). This system measures a dimensionless parameter called cell index, which evaluates the ionic environment at an electrode/solution interface and integrates information on cell number. Depending on the cell line 5 × 10^3–1 × 10^4 cells were plated in each well of the 16-well plates in 200 μl of cell culture medium. After seeding, cells were allowed to settle for 30 min at room temperature before being inserted into the xCELLigence instrument in a humidified incubator at 37 °C with 10% CO2. For RTCA experiments assaying cells stably expressing the inducible shRNA transgene, cells were seeded onto the E-plates in medium supplemented with 200 ng ml^−1 doxycycline. For RTCA experiments, the cells were treated with Deltarasin or Deltazinone 1 after reaching a steady growth (24 h/48 h). The small-molecule inhibitors were added at indicated time points and in the indicated concentrations. […] Continuous impedance measurements were then monitored every 15 min for up to 200 h. All assays were performed in duplicates. The cell index was normalized to 1 at the time point of drug administration. […]

PANC-1 cells = format: cell-based
Protocol: as §1

A2A (h) = molecular target: T1, A2A (h) (Homo sapiens, UniProt P29274); experiment: Cerep binding, agonist radioligand; settings: read-out: % Inhibition of Control Specific Binding
T1 construct: purchased Eurofins Pharma Discovery Services (CEREP diversity panel)

beta 2 (h) = molecular target: T2, beta 2 (h) (Homo sapiens, UniProt P07550); experiment: Cerep binding, agonist radioligand; settings: read-out: % Inhibition of Control Specific Binding
T2 construct: purchased Eurofins Pharma Discovery Services (CEREP diversity panel)

AT1 (h) = molecular target: T3, AT1 (h) (Homo sapiens, UniProt P30556); experiment: Cerep binding, antagonist radioligand; settings: read-out: % Inhibition of Control Specific Binding
T3 construct: purchased Eurofins Pharma Discovery Services (CEREP diversity panel)
T3 sequence (P30556 whole entry): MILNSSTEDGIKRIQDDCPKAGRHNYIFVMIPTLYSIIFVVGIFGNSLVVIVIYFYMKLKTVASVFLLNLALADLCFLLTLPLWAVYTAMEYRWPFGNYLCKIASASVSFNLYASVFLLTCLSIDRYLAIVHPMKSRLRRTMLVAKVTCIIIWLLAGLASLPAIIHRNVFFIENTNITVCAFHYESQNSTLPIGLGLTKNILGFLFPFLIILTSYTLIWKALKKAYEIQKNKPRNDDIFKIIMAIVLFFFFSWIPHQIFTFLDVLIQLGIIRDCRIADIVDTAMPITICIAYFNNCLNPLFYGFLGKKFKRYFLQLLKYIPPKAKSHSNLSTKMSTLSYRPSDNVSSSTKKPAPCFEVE

CB1 (h) = molecular target: T4, CB1 (h) (Homo sapiens, UniProt P21554); experiment: Cerep binding, agonist radioligand; settings: read-out: % Inhibition of Control Specific Binding
T4 construct: purchased Eurofins Pharma Discovery Services (CEREP diversity panel)

ETB (h) = molecular target: T5, ETB (h) (Homo sapiens, UniProt P24530); experiment: Cerep binding, agonist radioligand; settings: read-out: % Inhibition of Control Specific Binding
T5 construct: purchased Eurofins Pharma Discovery Services (CEREP diversity panel)
T5 sequence (P24530 27-442): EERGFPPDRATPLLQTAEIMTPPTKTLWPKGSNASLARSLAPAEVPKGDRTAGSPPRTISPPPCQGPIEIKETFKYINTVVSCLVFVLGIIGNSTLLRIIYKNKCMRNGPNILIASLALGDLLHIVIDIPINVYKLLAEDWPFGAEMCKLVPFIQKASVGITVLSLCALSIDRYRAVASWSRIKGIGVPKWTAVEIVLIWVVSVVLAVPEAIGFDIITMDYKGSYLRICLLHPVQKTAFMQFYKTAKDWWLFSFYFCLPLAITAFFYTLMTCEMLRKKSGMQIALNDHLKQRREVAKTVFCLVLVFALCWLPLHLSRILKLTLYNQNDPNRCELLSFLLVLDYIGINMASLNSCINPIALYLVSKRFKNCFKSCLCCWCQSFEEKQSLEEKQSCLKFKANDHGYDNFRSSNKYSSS

H2 (h) = molecular target: T6, H2 (h) (Homo sapiens, UniProt P25021); experiment: Cerep binding, antagonist radioligand; settings: read-out: % Inhibition of Control Specific Binding
T6 construct: purchased Eurofins Pharma Discovery Services (CEREP diversity panel)
T6 sequence (P25021 whole entry): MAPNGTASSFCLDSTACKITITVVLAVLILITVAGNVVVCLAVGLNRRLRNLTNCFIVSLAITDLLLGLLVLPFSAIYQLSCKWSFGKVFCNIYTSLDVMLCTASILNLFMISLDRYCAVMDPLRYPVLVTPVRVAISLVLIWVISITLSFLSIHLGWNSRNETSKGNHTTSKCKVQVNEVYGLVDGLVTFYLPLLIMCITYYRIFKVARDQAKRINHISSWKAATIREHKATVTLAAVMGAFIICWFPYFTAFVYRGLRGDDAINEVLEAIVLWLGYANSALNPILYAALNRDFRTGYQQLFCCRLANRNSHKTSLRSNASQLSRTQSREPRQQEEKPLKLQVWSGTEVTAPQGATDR

H3 (h) = molecular target: T7, H3 (h) (Homo sapiens, UniProt Q9Y5N1); experiment: Cerep binding, agonist radioligand; settings: read-out: % Inhibition of Control Specific Binding
T7 construct: purchased Eurofins Pharma Discovery Services (CEREP diversity panel)
T7 sequence (Q9Y5N1 whole entry): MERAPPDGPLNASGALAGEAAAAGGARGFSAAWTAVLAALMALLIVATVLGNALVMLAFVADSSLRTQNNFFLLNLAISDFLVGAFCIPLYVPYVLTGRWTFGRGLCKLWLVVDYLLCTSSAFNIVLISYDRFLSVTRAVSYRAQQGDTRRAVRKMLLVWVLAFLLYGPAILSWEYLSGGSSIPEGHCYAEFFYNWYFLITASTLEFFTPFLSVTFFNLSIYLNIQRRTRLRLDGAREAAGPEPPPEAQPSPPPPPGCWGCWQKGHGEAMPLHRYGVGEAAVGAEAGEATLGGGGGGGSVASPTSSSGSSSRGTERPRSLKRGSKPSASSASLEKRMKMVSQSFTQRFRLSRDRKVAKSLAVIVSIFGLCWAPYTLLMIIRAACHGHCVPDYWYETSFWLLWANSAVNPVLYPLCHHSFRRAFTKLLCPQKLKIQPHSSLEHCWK

I2 = experiment: Cerep binding, antagonist radioligand; settings: 5 µM
CysLT1 (LTD4) (h) = molecular target: T8, CysLT1 (LTD4) (h) (Homo sapiens, UniProt Q9Y271); experiment: Cerep binding, agonist radioligand; settings: read-out: % Inhibition of Control Specific Binding
T8 construct: purchased Eurofins Pharma Discovery Services (CEREP diversity panel)

MT1 (ML1A) (h) = molecular target: T9, MT1 (ML1A) (h) (Homo sapiens, UniProt P48039); experiment: Cerep binding, agonist radioligand; settings: read-out: % Inhibition of Control Specific Binding
T9 construct: purchased Eurofins Pharma Discovery Services (CEREP diversity panel)
T9 sequence (P48039 whole entry): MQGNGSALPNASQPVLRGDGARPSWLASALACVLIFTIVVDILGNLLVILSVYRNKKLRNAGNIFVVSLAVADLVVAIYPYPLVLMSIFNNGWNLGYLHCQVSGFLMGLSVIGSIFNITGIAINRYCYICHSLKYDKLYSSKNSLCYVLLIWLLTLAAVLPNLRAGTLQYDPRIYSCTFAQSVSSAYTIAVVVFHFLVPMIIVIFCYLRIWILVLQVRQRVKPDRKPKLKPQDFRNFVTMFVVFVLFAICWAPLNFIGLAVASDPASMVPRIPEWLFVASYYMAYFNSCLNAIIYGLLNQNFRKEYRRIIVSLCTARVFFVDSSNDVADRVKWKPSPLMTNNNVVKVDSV

M (non-selective) = experiment: Cerep binding, antagonist radioligand; settings: 5 µM
NK3 (h) = molecular target: T10, NK3 (h) (Homo sapiens, UniProt P29371); experiment: Cerep binding, antagonist radioligand; settings: read-out: % Inhibition of Control Specific Binding
T10 construct: purchased Eurofins Pharma Discovery Services (CEREP diversity panel)
T10 sequence (P29371 whole entry): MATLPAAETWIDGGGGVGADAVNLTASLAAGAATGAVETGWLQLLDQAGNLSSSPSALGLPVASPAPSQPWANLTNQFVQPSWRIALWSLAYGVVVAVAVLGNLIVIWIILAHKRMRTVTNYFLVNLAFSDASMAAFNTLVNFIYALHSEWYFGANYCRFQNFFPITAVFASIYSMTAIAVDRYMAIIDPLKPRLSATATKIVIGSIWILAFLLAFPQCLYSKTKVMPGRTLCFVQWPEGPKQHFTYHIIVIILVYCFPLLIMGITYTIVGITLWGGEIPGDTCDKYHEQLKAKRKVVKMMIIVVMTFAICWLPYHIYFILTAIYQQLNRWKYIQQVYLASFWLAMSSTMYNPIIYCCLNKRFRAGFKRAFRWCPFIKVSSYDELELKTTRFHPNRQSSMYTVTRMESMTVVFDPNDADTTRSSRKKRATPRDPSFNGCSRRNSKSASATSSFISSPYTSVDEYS

Y (non-selective) = experiment: Cerep binding, agonist radioligand; settings: 5 µM
[2] = molecular target: T11, N neuronal alpha 4beta 2 (h) (Homo sapiens, UniProt P17787+P43681); experiment: Cerep binding, agonist radioligand; settings: read-out: % Inhibition of Control Specific Binding
T11 construct: purchased Eurofins Pharma Discovery Services (CEREP diversity panel)

EP2 (h) = molecular target: T12, EP2 (h) (Homo sapiens, UniProt P43116); experiment: Cerep binding, agonist radioligand; settings: read-out: % Inhibition of Control Specific Binding
T12 construct: purchased Eurofins Pharma Discovery Services (CEREP diversity panel)
T12 sequence (P43116 whole entry): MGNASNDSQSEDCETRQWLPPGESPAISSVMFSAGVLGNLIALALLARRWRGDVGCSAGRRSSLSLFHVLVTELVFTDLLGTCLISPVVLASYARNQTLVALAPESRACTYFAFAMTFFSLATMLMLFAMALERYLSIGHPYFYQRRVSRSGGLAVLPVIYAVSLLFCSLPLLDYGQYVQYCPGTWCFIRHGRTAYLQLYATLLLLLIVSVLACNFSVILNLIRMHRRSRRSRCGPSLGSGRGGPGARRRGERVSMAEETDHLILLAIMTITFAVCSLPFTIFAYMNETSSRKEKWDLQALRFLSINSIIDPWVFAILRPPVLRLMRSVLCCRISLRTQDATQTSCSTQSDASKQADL

PR (h) = molecular target: T13, PR (h) (Homo sapiens, UniProt P06401); experiment: Cerep binding, agonist radioligand; settings: read-out: % Inhibition of Control Specific Binding
T13 construct: purchased Eurofins Pharma Discovery Services (CEREP diversity panel)
T13 sequence (P06401 whole entry): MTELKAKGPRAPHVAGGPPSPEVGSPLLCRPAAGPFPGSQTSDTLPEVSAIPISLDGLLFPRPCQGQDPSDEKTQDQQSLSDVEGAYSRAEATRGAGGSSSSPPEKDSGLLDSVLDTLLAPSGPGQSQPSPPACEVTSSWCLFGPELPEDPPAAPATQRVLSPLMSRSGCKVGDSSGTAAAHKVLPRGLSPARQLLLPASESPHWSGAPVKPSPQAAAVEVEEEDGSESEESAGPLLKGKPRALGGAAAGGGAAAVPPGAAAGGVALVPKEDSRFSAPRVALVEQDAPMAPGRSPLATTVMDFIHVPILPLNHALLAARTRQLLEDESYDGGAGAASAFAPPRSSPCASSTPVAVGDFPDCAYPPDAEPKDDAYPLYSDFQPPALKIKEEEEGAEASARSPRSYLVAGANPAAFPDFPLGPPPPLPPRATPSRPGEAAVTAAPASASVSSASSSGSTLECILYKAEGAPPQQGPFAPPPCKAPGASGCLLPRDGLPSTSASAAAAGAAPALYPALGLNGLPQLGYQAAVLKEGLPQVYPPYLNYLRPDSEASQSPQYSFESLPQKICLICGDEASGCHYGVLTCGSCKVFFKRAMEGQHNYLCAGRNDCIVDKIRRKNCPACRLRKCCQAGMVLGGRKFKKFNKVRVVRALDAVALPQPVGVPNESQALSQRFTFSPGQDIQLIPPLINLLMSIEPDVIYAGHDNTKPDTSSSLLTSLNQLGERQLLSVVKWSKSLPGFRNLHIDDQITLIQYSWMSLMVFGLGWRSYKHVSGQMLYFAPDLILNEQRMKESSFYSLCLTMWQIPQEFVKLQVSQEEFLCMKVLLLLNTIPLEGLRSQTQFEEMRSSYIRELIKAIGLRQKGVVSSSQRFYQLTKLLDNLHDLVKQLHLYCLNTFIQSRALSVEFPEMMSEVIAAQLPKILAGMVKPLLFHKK

V1a (h) = molecular target: T14, V1a (h) (Homo sapiens, UniProt P37288); experiment: Cerep binding, agonist radioligand; settings: read-out: % Inhibition of Control Specific Binding
T14 construct: purchased Eurofins Pharma Discovery Services (CEREP diversity panel)

[3] = system: Ca2+ channel (L, dihydropyridine site); experiment: Cerep binding, antagonist radioligand; settings: 5 µM
[4] = system: Ca2+ channel (L, diltiazem site) (benzothiazepines); experiment: Cerep binding, antagonist radioligand; settings: 5 µM
dopamine transporter (h) = molecular target: T15, dopamine transporter (h) (Homo sapiens, UniProt Q01959); experiment: Cerep binding, antagonist radioligand; settings: read-out: % Inhibition of Control Specific Binding
T15 construct: purchased Eurofins Pharma Discovery Services (CEREP diversity panel)
T15 sequence (Q01959 whole entry): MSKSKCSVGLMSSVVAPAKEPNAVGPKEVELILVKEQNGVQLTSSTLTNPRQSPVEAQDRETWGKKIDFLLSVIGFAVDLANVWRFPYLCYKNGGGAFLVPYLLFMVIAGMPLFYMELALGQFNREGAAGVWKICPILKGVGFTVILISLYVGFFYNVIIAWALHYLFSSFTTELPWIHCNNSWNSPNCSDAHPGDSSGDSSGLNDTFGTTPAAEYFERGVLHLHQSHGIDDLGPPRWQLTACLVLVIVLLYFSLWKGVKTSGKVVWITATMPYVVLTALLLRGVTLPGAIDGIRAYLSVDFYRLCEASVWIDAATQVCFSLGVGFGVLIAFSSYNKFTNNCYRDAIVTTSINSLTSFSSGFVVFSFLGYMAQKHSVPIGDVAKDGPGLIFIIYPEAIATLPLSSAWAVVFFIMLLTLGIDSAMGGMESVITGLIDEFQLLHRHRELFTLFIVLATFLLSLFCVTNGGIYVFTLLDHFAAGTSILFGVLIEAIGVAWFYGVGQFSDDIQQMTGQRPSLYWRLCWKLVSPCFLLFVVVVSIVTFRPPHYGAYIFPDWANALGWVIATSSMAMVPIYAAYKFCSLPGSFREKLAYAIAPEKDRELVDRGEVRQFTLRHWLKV

PDE2A1 (h) = molecular target: T16, PDE2A1 (h) (Homo sapiens, UniProt O00408); experiment: Cerep enzyme and cell-based assays; format: biochemical; settings: read-out: % Inhibition of Control Values
T16 construct: Eurofins Pharma Discovery Services (CEREP diversity panel, outsourced assay)

PDE5 (h) (non-selective) = molecular target: T17, PDE5 (h) (non-selective) (Homo sapiens, UniProt O76074); experiment: Cerep enzyme and cell-based assays; format: biochemical; settings: read-out: % Inhibition of Control Values
T17 construct: Eurofins Pharma Discovery Services (CEREP diversity panel, outsourced assay)

HDAC3 (h) = molecular target: T18, HDAC3 (h) (Homo sapiens, UniProt O15379); experiment: Cerep enzyme and cell-based assays; format: biochemical; settings: read-out: % Inhibition of Control Values
T18 construct: Eurofins Pharma Discovery Services (CEREP diversity panel, outsourced assay)
T18 sequence (O15379 whole entry): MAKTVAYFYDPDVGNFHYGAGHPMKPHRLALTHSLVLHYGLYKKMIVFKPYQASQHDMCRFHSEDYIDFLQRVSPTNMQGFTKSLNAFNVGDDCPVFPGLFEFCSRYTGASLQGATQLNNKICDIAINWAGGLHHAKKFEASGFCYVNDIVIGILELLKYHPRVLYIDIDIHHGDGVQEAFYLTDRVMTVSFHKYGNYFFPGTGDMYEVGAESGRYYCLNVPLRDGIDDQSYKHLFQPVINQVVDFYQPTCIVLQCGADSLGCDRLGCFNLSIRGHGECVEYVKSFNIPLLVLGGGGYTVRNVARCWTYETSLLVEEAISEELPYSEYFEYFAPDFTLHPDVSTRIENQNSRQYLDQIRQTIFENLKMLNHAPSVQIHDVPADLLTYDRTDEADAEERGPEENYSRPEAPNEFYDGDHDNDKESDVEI
T18 sequence (Q9Y618 395-489 partner limits assumed): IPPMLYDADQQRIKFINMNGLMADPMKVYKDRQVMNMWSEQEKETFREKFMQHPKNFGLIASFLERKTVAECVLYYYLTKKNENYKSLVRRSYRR

[5] = molecular target: T19, sirtuin 2 (h) (inhibitor effect) (Homo sapiens, UniProt Q8IXJ6); experiment: Cerep enzyme and cell-based assays; format: biochemical; settings: read-out: % Inhibition of Control Values
T19 construct: Eurofins Pharma Discovery Services (CEREP diversity panel, outsourced assay)

[6] = system: adenylyl cyclase (activator effect); experiment: Cerep enzyme and cell-based assays; format: biochemical; settings: 5 µM
Panc-Tu-I cells [7] = experiment: long-term time-lapse microscopy; settings: 72 h, 5 μM Deltarasin or 10 μM Deltazinone 1
[8] = molecular target: choline transporter (CHT1) (h) (Homo sapiens, UniProt Q9GZV3); experiment: Cerep binding, antagonist radioligand; settings: read-out: % Inhibition of Control Specific Binding
Erk phosphorylation = experiment: western blot, Erk phosphorylation in Panc-Tu-I
Protocol: (§2) To examine whether PDEδ inhibition by Deltarasin and Deltazinone 1 downregulates the signal transduction via these pathways, we examined the phosphorylation of extracellular signal regulated kinase (Erk) and S6 Ribosomal Protein (S6P) in the oncogenic KRas-dependent Panc-Tu-1 and KRas-independent PANC-1 cells. […] Cells were lysed with RIPA-buffer (20 mM Tris pH 7.5, 150 mM NaCl, 0.5 mM Na2 EDTA, 1 % sodium deoxycholate, 0.1% sodium dodecyl sulfate, 1% IGEPAL supplemented with Complete Mini EDTA-free protease inhibitor (Roche Applied Science) and 1% phosphatase inhibitor cocktail 2 and 3 (P5726 and P0044, Sigma Aldrich), scraped off after 5 min on ice and centrifuged at 14,000g for 20 min at 4 °C. SDS–polyacrylamide gel electrophoresis was carried out with 10–25 μg of whole-cell lysate from each sample. The gels were blotted onto polyvinylidene difluoride membrane (Millipore) and blocked for 1 h at room temperature. […] Blots were scanned on a LI-COR Odyssey imaging system.
(§3) Western blots were quantified using ImageJ. The background of the blots was subtracted by applying the rolling ball subtraction with a radius of 50 pixels. Afterwards the integrated intensity of the bands was measured.

S6P phosphorylation = experiment: western blot, S6P phosphorylation in Panc-Tu-I; settings: for EGF-induced S6P phosphorylation: 1 h, 5 μM Deltarasin or 20 μM Deltazinone 1, 5 min EGF
Protocol: as §2, §3

[9] = 20 μM, longer incubation times (>3 h)
[10] = 1 h, 5 μM Deltarasin or 20 μM Deltazinone 1, 5 min EGF

Row | SMILES | inhibition at 5 µM (A2A (h)) | inhibition at 5 µM (beta 2 (h)) | inhibition at 5 µM (AT1 (h)) | inhibition at 5 µM (CB1 (h)) | inhibition at 5 µM (ETB (h)) | inhibition at 5 µM (H2 (h)) | inhibition at 5 µM (H3 (h)) | % Inhibition of Control Specific Binding (I2) | inhibition at 5 µM (CysLT1 (LTD4) (h)) | inhibition at 5 µM (MT1 (ML1A) (h)) | % Inhibition of Control Specific Binding (M (non-selective)) | inhibition at 5 µM (NK3 (h)) | % Inhibition of Control Specific Binding (Y (non-selective)) | inhibition at 5 µM [2] | inhibition at 5 µM (EP2 (h)) | inhibition at 5 µM (PR (h)) | inhibition at 5 µM (V1a (h)) | % Inhibition of Control Specific Binding [3] | % Inhibition of Control Specific Binding [4] | inhibition at 5 µM (dopamine transporter (h)) | also measured
1 | Cc1ccc(-n2nc3c(=O)n(CCCC(=O)NCC(C)c4ccccc4)nc(C)c3c2C)cc1 (stereo not shown) [2k] | -6% | 9% | 9% | -12% | -12% | 5% | -10% | 39% | 0% | 22% | 21% | 17% | -19% | -8% | 6% | 3% | -4% | -2% | -4% | 17% | onset of cell death after treatment (Panc-Tu-I cells [1]; 24 μM): ~13 h; time after administration at which decreasing cell indices indicated cell death (Panc-Tu-I cells [1]; doses higher than 3 μM): ~30 h; effect on growth (BxPC-3 cells; BxPC-3, doses up to 24 μM): little or no growth inhibitory effect; effect on growth (PANC-1 cells; PANC-1, doses up to 24 μM): little or no growth inhibitory effect; inhibition at 5 µM (PDE2A1 (h)): 2%; inhibition at 5 µM (PDE5 (h) (non-selective)): 3%; inhibition at 5 µM (HDAC3 (h)): 0%; inhibition at 5 µM [5]: 6%; % Inhibition of Control Values [6]: 2%; cell death in time-lapse microscopy (Panc-Tu-I cells [7]): cell death; inhibition at 5 µM [8]: 18%; EGF-induced Erk phosphorylation (Erk phosphorylation; [9]): reduced; EGF-induced Erk phosphorylation (Erk phosphorylation; [10]): did not significantly affect; S6P phosphorylation (S6P phosphorylation; [9]): further decreased; EGF-induced S6P phosphorylation (S6P phosphorylation): reduced S6P phosphorylation
2 | c1ccc(Cn2c(-c3ccc(OC[C@H](C4CCNCC4)n4c(-c5ccccc5)nc5ccccc54)cc3)nc3ccccc32)cc1 [Deltarasin, reference compound] | 28% | 7% | 41% | 7% | 15% | 38% | -2% | 19% | -5% | 28% | 96% | 61% | 10% | -10% | 28% | 41% | 21% | 87% | 61% | 65% | onset of detectable cell death post treatment (Panc-Tu-I cells [1]; 5 μM): ~9 h; concentration resulting in rapid cell death (unspecific cytotoxicity) (BxPC-3 cells; human): above 9 μM; concentration resulting in rapid cell death (unspecific cytotoxicity) (PANC-1 cells; human): above 9 μM; inhibition at 5 µM (PDE2A1 (h)): 3%; inhibition at 5 µM (PDE5 (h) (non-selective)): 92%; inhibition at 5 µM (HDAC3 (h)): 23%; inhibition at 5 µM [5]: 15%; % Inhibition of Control Values [6]: 2%; cell death in time-lapse microscopy (Panc-Tu-I cells [7]): cell death; inhibition at 5 µM [8]: 27%; EGF-induced Erk phosphorylation (Erk phosphorylation; [10]): reduced; EGF-induced S6P phosphorylation (S6P phosphorylation): reduced in both lines
